Measured values reported in PMC8583936, “Machine Learning Assisted Approach for Finding Novel High Activity Agonists of Human Ectopic Olfactory Receptors” (International Journal of Molecular Sciences, 2021).
“And” between values parts separate entries of the source, which are not always exact repeats. Equal values may be shown once.

Key:
[1] = target: T1, OR2W1 (Homo sapiens, UniProt Q9Y3N9); test: Dual-Glo luciferase reporter gene assay, OR2W1 in Hana3A cells; format: cell-based; design: The open reading frames of ORs were amplified using Phusion polymerase; Rho-tag (first 20 amino acids of human rhodopsin) (N); expressed in transfected cells; host or cells: Hana3A cells (derived from HEK293T), pCI vector; co-transfected with human RTP1S, M3 receptor, CRE-Luc and SV40-RL; details: for Bottom / Top / normilazed value = (L-400/R-400): OR2W1; for Bottom / Top: log(agonist) vs. response (three parameters), 95% CI (profile likelihood), normalized (L-400/R-400); for normilazed value = (L-400/R-400): log[molecule], three replicates
T1 sequence (Q9Y3N9 1-320): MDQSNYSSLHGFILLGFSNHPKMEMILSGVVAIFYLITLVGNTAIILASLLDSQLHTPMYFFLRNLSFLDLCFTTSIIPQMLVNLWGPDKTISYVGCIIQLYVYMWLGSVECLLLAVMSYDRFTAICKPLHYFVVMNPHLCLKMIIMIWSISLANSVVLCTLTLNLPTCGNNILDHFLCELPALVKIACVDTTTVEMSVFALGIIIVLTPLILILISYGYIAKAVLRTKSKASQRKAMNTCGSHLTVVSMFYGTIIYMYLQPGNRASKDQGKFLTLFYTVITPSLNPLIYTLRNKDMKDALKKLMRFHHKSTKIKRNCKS
Protocol: (§1) Hana3A cells were maintained in minimal essential medium containing 10% FBS (vol/vol) with penicillin-streptomycin and amphotericin B (1/200 each vol/vol) at 37 °C and 5% CO2. Hana3A cells are derived from HEK293T [57] and are optimized for OR studies as shown in several studies, compared to earlier OR expression in Sf9 insect cells in Gat et al., and in Xenopus oocytes, COS-7, PC12h and CHO-K1 cells in Katada et al..
(§2) The Dual-Glo luciferase assay system (Promega, Madison, WI, USA) was used to evaluate the functionality of wild-type OR1A1 and OR2W1 in an in vitro system. The open reading frames of ORs were amplified using Phusion polymerase (Thermo Fisher Scientific, Waltham, MA, USA). Amplified fragments were cloned into pCI expression vector (Promega, Madison, WI, USA) containing the sequence encoding the first 20 amino acids of human rhodopsin (Rho-tag) at N-terminal. Hana3A cells have been cultured and plated the day before transfection with 6 mL at 1/10 of a 100% confluence 100 mm plate into 96-well plates coated with poly D-lysine. After overnight incubation, the required genes were transfected using, for each plate, 5 ng SV40-RL, 10 ng CRE-Luc, 5 ng human RTP1S [72], 2.5 ng M3 receptor [73] and 5 ng of receptor (OR1A1, OR2W1 or empty vector Rho-pCI) plasmid. After around 18 h of transfection, cells were stimulated during 3.5 h by 25 µL of odorant diluted in CD293 + 1% glutamine + 30 µM CuCl2. Odorants were obtained from Sigma Aldrich (St. Louis, MO, USA) and diluted at 1 M concentration in DMSO as stock solutions. […] The luminescence of Firefly (Luc) and Renilla (Rluc) luciferase, were then sequentially monitored by injecting the corresponding substrate following the supplier’s protocol. The activity in each well was normalized as (Luc-400)/(Rluc-400). The response of the receptor was also normalized to its basal activity as (NLX/NL0)-1 where NL0 is the normalized luminescence value at 0 µM of odorant and NLX the value at X µM. […] Raw results were first analyzed with Excel (Microsoft Corporation, Albuquerque, NM, USA) and dose response curves, max efficacy and EC50 have been determined with GraphPrism 6 software (GraphPad Software, La Jolla, CA, USA). Areas under the curves (AUC) were calculated in Excel by summing all the OR responses at different concentrations for each odorant.

[2] = target: T2, OR1A1 (Homo sapiens, UniProt Q9P1Q5); details: cited from earlier work
T2 sequence (Q9P1Q5 1-309): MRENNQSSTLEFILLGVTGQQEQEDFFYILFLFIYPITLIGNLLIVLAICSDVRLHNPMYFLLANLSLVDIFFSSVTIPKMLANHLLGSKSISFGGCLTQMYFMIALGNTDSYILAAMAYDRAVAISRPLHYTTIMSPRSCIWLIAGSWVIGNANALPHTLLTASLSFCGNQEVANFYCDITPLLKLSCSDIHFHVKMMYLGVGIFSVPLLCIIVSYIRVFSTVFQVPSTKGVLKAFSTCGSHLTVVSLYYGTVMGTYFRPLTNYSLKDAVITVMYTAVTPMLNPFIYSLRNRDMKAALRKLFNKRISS

[3] = target: T2, OR1A1; test: Dual-Glo luciferase reporter gene assay, OR1A1 in Hana3A cells; format: cell-based; design: The open reading frames of ORs were amplified using Phusion polymerase; Rho-tag (first 20 amino acids of human rhodopsin) (N); expressed in transfected cells; host or cells: Hana3A cells (derived from HEK293T), pCI vector; co-transfected with human RTP1S, M3 receptor, CRE-Luc and SV40-RL; details: OR1A1; for normilazed value = (L-400/R-400): three replicates
Protocol: as §1, §2

[4] = target: T1, OR2W1; details: cited from earlier work
[5] = log(agonist) vs. response (three parameters), 95% CI (profile likelihood), normalized (L-400/R-400)

O=C(c1ccccc1)c1ccccc1 [Benzophenone]
Bottom [1]: 9.831 to 25.58
Top [1]: 33.11 to 38.76
normilazed value = (L-400/R-400) ([1]; M = -3.5): 18.7324 and 22.6176 and 22.52
normilazed value = (L-400/R-400) ([1]; M = -3.75): 27.3072 and 27.4246
normilazed value = (L-400/R-400) ([1]; M = -4): 38.4836
normilazed value = (L-400/R-400) ([1]; M = -4.25): 38.5091 and 37.4777
normilazed value = (L-400/R-400) ([1]; M = -4.5): 37.1848 and 47.4935
normilazed value = (L-400/R-400) ([1]; M = -4.75): 39.8168 and 41.5774 and 37.3522
normilazed value = (L-400/R-400) ([1]; M = -5): 38.9191 and 40.737 and 39.7699
normilazed value = (L-400/R-400) ([1]; M = -5.25): 38.6807 and 38.6347 and 47.5267
normilazed value = (L-400/R-400) ([1]; M = -5.5): 41.7726 and 40.3216 and 44.1867
normilazed value = (L-400/R-400) ([1]; M = -6): 27.5667 and 27.048
Class (agonist / non-agonist / conflicting info.) for OR1A1 [2]: agonist
Bottom [3, 5]: -1.851 to 2.543
Top [3, 5]: 11.67 to 14.46
normilazed value = (L-400/R-400) ([3]; log[molecule], M = -3.5): 7.459 and 7.533 and 8.1639
normilazed value = (L-400/R-400) ([3]; log[molecule], M = -3.75): 11.5068 and 9.986 and 11.6353
normilazed value = (L-400/R-400) ([3]; log[molecule], M = -4): 12.912 and 14.5062 and 13.7456
normilazed value = (L-400/R-400) ([3]; log[molecule], M = -4.25): 14.2415 and 16.6502 and 17.5965
normilazed value = (L-400/R-400) ([3]; log[molecule], M = -4.5): 12.7776 and 13.5787 and 13.5772
normilazed value = (L-400/R-400) ([3]; log[molecule], M = -4.75): 11.0413 and 12.4085 and 13.0495
normilazed value = (L-400/R-400) ([3]; log[molecule], M = -5): 8.171 and 9.262 and 9.035
normilazed value = (L-400/R-400) ([3]; log[molecule], M = -5.25): 6.73 and 6.359 and 7.725
normilazed value = (L-400/R-400) ([3]; log[molecule], M = -5.5): 4.815 and 4.814 and 5.195
normilazed value = (L-400/R-400) ([3]; log[molecule], M = -5.75): 3.111 and 2.689 and 2.548
normilazed value = (L-400/R-400) ([3]; log[molecule], M = -6): 2.109 and 2.273 and 2.067
EC50 ([3]; three-parameter fit, 95% CI (profile likelihood)): 2.47 to 8.3 µM
LogEC50 ([3]; three-parameter fit, 95% CI (profile likelihood), log[molecule], M): -5.608 to -5.081
Class (agonist / non-agonist / antagonist / conflicting info.) for OR2W1 [4]: agonist

C=Cc1ccc(OCCCCOc2ccc(C=C)cc2)cc1 [1-Ethenyl-4-[4-(4-ethenylphenoxy)butoxy]benzene]
activation of OR2W1 in dose-responses ([1]; Figure 4B): non-agonist
Bottom [1]: 13.33 to 18.34
Top [1]: 19.48 to 21.36
normilazed value = (L-400/R-400) ([1]; M = -3.5, listed as 1,4 bis(4-vinylphenoxy)butane): 14.9951 and 16.6432 and 18.6473
normilazed value = (L-400/R-400) ([1]; M = -3.75, listed as 1,4 bis(4-vinylphenoxy)butane): 18.9044 and 23.5612 and 19.9145
normilazed value = (L-400/R-400) ([1]; M = -4, listed as 1,4 bis(4-vinylphenoxy)butane): 20.1703 and 23.9778 and 22.651
normilazed value = (L-400/R-400) ([1]; M = -4.25, listed as 1,4 bis(4-vinylphenoxy)butane): 19.282 and 20.5728 and 18.4952
normilazed value = (L-400/R-400) ([1]; M = -4.5, listed as 1,4 bis(4-vinylphenoxy)butane): 18.9465 and 18.6061 and 21.68
normilazed value = (L-400/R-400) ([1]; M = -4.75, listed as 1,4 bis(4-vinylphenoxy)butane): 18.1682 and 21.4587 and 25.3103
normilazed value = (L-400/R-400) ([1]; M = -5, listed as 1,4 bis(4-vinylphenoxy)butane): 19.2619 and 21.2657 and 21.338
normilazed value = (L-400/R-400) ([1]; M = -5.25, listed as 1,4 bis(4-vinylphenoxy)butane): 22.445 and 21 and 22.2921
normilazed value = (L-400/R-400) ([1]; M = -5.5, listed as 1,4 bis(4-vinylphenoxy)butane): 19.9195 and 18.3482 and 19.8887
normilazed value = (L-400/R-400) ([1]; M = -5.75, listed as 1,4 bis(4-vinylphenoxy)butane): 21.6432 and 19.6062 and 21.4331
normilazed value = (L-400/R-400) ([1]; M = -6, listed as 1,4 bis(4-vinylphenoxy)butane): 16.9263 and 20.1438 and 17.6109
